Laboratory results from PubChem BioAssay (NCI).
Several values for one entry are separate records, joined by “and”; a condition that tells them apart may be missing. Identical values can stand only once.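 Interpolation was linear, between the two tested concentrations surrounding the appropriate level; five concentrations were tested over 48 hours in 96-well plates. GI50 marks 50% less growth. Definition used: TGI = concentration required for complete inhibition of growth.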 Where a SMILES comes first, the peptide text is derived from it. [ ]: non-standard residue; d: D form. The star is where a group is joined. ξ: configuration not given here. NMeF = CN[CH](Cc1ccccc1)C(=O)O; ξNMeF = CNC(Cc1ccccc1)C(=O)O; NMeV = CN[CH](C(=O)O)C(C)C; Boc = CC(C)(C)OC(=O)*; OBn = c1ccc(CO*)cc1

Legend:
Assay in all cases: NCI anticancer screen, dose series, 48 h
A498 renal = tested on: A498 renal
A549 NSCLC = tested on: A549 NSCLC
HCT-15 colon = tested on: HCT-15 colon
HOP-92 NSCLC = tested on: HOP-92 NSCLC
IGROV1 ovarian = tested on: IGROV1 ovarian
KM12 colon = tested on: KM12 colon
MALME-3M melanoma = tested on: MALME-3M melanoma
MOLT-4 leukemia = tested on: MOLT-4 leukemia
NCI-H23 lung = tested on: NCI-H23 lung
SF-268 CNS = tested on: SF-268 CNS
SF-539 CNS = tested on: SF-539 CNS
UACC-62 melanoma = tested on: UACC-62 melanoma
HS 578T breast = tested on: HS 578T breast
MCF7 breast = tested on: MCF7 breast
MDA-MB-435 = tested on: MDA-MB-435
RXF 393 renal = tested on: RXF 393 renal

Row | Structure (SMILES) | TGI (A498 renal) [µM] | TGI (A549 NSCLC) [µM] | TGI (HCT-15 colon) [µM] | TGI (HOP-92 NSCLC) [µM] | TGI (IGROV1 ovarian) [µM] | TGI (KM12 colon) [µM] | TGI (MALME-3M melanoma) [µM] | TGI (MOLT-4 leukemia) | TGI (NCI-H23 lung) [µM] | TGI (SF-268 CNS) [µM] | TGI (SF-539 CNS) [µM] | TGI (UACC-62 melanoma) [µM] | TGI (HS 578T breast) [µM] | TGI (MCF7 breast) [µM] | TGI (MDA-MB-435) [µM] | TGI (RXF 393 renal) [µM] | GI50 (KM12 colon) | GI50 (MOLT-4 leukemia) | GI50 (SF-539 CNS)
1 | Nc1nc(SCC(=O)c2ccccc2)c2[nH]cnc2n1 | > 100 | > 100 | > 100 | > 100 | > 100 | > 100 | > 100 | > 100 µM | > 100 | > 100 | > 100 | > 100 | – | – | – | – | – | – | –
2 | CC1(C)CC[C@]2(C(=O)O)CC[C@]3(C)C(=CCC4=C5C[C@H](O)[C@H](O)[C@@](C)(CO)[C@@]5(C)CC[C@]43C)[C@@H]2C1 | > 100 | > 100 | > 100 | > 100 | > 100 | > 100 | > 100 | > 100 µM | > 100 | > 100 | > 100 | > 100 | > 100 | > 100 | > 100 | – | – | – | –
3 | CN(c1ccccc1)c1cc2ccccc2nn1 | > 100 | > 100 | > 100 | > 100 | > 100 | > 100 | > 100 | > 100 µM | > 100 | > 100 | > 100 | > 100 | – | – | – | > 100 | – | – | –
4 | CCc1n[nH]c(=O)n1CC | > 100 | > 100 | > 100 | > 100 | > 100 | > 100 | > 100 | > 100 µM | > 100 | > 100 | > 100 | > 100 | > 100 | > 100 | > 100 | – | – | – | –
5 | CN(C)c1ccc(C=Nc2ccc(-c3nc4ccccc4s3)cc2)cc1 | 37.1 | > 100 | > 100 | 59.4 | > 100 | > 100 | 95.7 | > 100 µM | 97.6 | – | > 100 | 31.7 | – | 76.5 | > 100 | 52.2 | – | – | –
6 | C=C1CN=C(Nc2ccc(Cl)cc2)S1 | > 100 | > 100 | > 100 | > 100 | > 100 | > 100 | > 100 | > 10 µM | > 100 | > 100 | > 100 | – | > 100 | > 100 | – | – | – | – | –
7 | COc1cccc(NC(=O)CSc2nnc(Cc3ccccc3)o2)c1 | > 100 | > 100 | > 100 | – | > 100 | > 100 | > 100 | > 100 µM | > 100 | > 100 | > 100 | > 100 | – | – | – | > 100 | – | – | –
8 | CCN(CC)C(=O)CCn1cc(F)c(=O)[nH]c1=O | – | > 100 | > 100 | – | > 100 | > 100 | > 100 | > 100 µM | > 100 | > 100 | > 100 | > 100 | – | – | – | > 100 | – | – | –
9 | CC(C)[C@@H](C(=O)N(C)[C@H](C(=O)N1CCC[C@H]1C(=O)OCc1ccccc1)C(C)C)N(C)C(=O)C(Cc1ccccc1)N(C)C(=O)[C@H](NC(=O)OC(C)(C)C)C(C)C (some centres not stated) (Boc-[dV][ξNMeF][NMeV][NMeV]P-OBn) | > 31.6 | > 31.6 | > 31.6 | > 31.6 | > 31.6 | – | > 100 | > 31.6 µM | > 100 | > 31.6 | > 31.6 | > 31.6 | – | – | – | > 31.6 | – | – | –
10 | Cc1cc(C)c(NS(=O)c2cccc(C(F)(F)F)c2)c(C)c1 (configuration not stated) | > 100 | > 100 | > 100 | > 100 | – | > 100 | > 100 | > 100 µM | > 100 | > 100 | > 100 | – | – | > 100 | > 100 | > 100 | – | – | –
11 | COc1ccccc1-n1nnc2c(N)nc(N)nc21 | > 100 | > 100 | > 100 | > 100 | > 100 | > 100 | > 100 | > 100 µM | > 100 | > 100 | > 100 | > 100 | > 100 | > 100 | > 100 | – | – | – | –
12 | Clc1cccc(-c2nc3cccc4c3n2Cc2ncccc2-4)c1 | > 100 | > 100 | > 100 | > 100 | > 100 | > 100 | > 100 | – | > 100 | > 100 | > 100 | > 100 | – | > 100 | > 100 | > 100 | – | – | –
13 | CC(C)C(NC(=O)OC(C)(C)C)C(=O)N(C)C(Cc1ccccc1)C(=O)N(C)C(C(=O)OCc1ccccc1)C(C)C (stereo not drawn) (Boc-Val-[NMeF]-[NMeV]-OBn; configuration not given here) | – | > 100 | > 100 | – | > 100 | > 100 | > 100 | 39.6 µM and 44 µM | > 100 | > 100 | > 100 | > 100 | – | – | – | – | 38.2 µM and 82.9 µM | 5.92 µM and 14.8 µM | 16.4 µM and 78.4 µM
14 | CCCCC(=O)/C=c1/cc(C)[nH]c2cccc3cnn1c32 | > 100 | > 100 | > 100 | > 100 | > 100 | > 100 | > 100 | > 100 µM | > 100 | > 100 | > 100 | > 100 | > 100 | > 100 | > 100 | – | – | – | –
15 | C=CCCCCCCCCCP(=O)(c1ccccc1)c1ccc2c(c1)OCCOCCOCCOCCO2 (configuration not stated) | 27.7 | 28.1 | 28.2 | > 100 | 30.2 | 25.4 | 31.9 | 24.9 µM | 29.7 | 29.5 | 31.9 | 29.4 | – | – | – | 27.4 | – | – | –
16 | S=C1NC2=C(CSC/C2=C\c2ccc(Cl)cc2)C(c2ccc(Cl)cc2)N1 (configuration not stated) | – | > 100 | > 100 | 88.4 | > 100 | > 100 | 71.3 | > 100 µM | > 100 | > 100 | – | > 100 | > 100 | > 100 | – | – | – | – | –
